“Also recorded” adds a separate entry of the source.
Legend:
ACE2 [1] = test: Rat cornea alkali burn: ACE2 abundance by Jess capillary-based Western Blot; format: in vivo; details: rat cornea after alkali burn; eye drops 20 μl/eye, 3 times/day for 14 days; day 14
Source text: Sprague-Dawley rats (8-week-old male) were obtained from Charles River Laboratories (Wilmington, MA, USA) and kept at the Animal Care of the Neuroscience Center of Excellence, Louisiana State University Health (LSUH; New Orleans, LA, USA). All animals were handled in compliance with the guidelines of the ARVO Statement for the Use of Animals in Ophthalmic and Vision Research, and the experimental protocol was approved by the Institutional Animal Care and Use Committee (IACUC) at LSUH.
(§1) The rats were anesthetized by intraperitoneal injection of Ketamine (50-100 mg/kg) plus xylazine (5-10 mg/kg). A 4 mm diameter filter paper soaked in 1 N NaOH was placed on the central cornea of the right eye for 45 seconds, and then the eye was thoroughly washed with […] of saline. After injury, the rats were randomly divided into five treatment groups: vehicle; lipoxin A4 (LXA4) from Cayman Chemical (Ann Arbor, MI, USA); R,R Resolvin D6 isomer (RvD6i), R,R neuroprotection D (NPD1), and elovanoid (ELV)-N32. All lipid solutions were prepared at the final concentration of […] using PBS with the minimal contamination of ethanol by evaporating the ethanol and immediately dissolve the lipids in PBS, then vortex well for 2 min. Topical administration (20 μl) was done 3×/day for 14 days. The experiments were double-blinded with the lipid mediators coded during the whole experiments. At the end of the study, when all data was collected, the code was opened.
Briefly, samples were lysed with RIPA buffer containing a protease inhibitor cocktail (Sigma, Cat. P8340). Cell debris was removed after 10 min centrifugation at 16,000×g. Protein concentration was determined by BCA assay (Thermo Fisher Scientific, Cat. 23225) and 1 μg used/reaction. Fluorescent Master Mix was mixed with 40 mM DTT, and the mixture was added to each sample to provide a denaturing and reducing environment. Samples were heated at 95° C./5 min, and 3 μL of each sample were loaded. The 12-230 kDa cartridge (Protein Simple—#SM-W004) was used. Primary antibodies were diluted in antibody diluent 2 buffer (Protein Simple, #042-203) while the working solution of secondary antibodies was provided by the company (Protein Simple, #042-206). Then, the filled plate was spin-down for 10 min at 1,000×g to remove bubbles and plate, and capillaries were loaded into the Jess machine. For data analysis, the area of spectra that matched the molecular weight of the target protein was used. To reduce the coefficient variant, we analyzed the GAPDH for each capillary. The ratio of the targeted protein to GAPDH was used for statistical comparisons. For visualization, the artificial lanes generated from spectra volume was used.

Alexa 594-RBD [2] = format: in vivo; details: rat cornea after alkali burn; 14 days treatment; Alexa 594-RBD 1 μg/eye, 3 times at day 15, examined a day later
ACE2 [3] = test: Rat cornea alkali burn: corneal RNA-seq, Ace2 gene expression; format: in vivo; details: rat cornea after alkali burn; eye drops 3 times/day for 14 days; RNA-seq day 14
Description: as §1
(§2) Injured corneas (n=5/condition) were harvested and homogenized with TRIzol (Thermo Fisher Scientific) on ice with a glass Dounce homogenizer. RNA sequencing was performed as described^14. Briefly, after mRNA extraction and determination of purity, 8 ng of total RNA was reverse transcribed, and total cDNAs were amplified using ISPCR primer, and the library was made with the Nextera XT DNA library preparation kit (Illumina, San Diego, CA, USA). The libraries were pooled with the same molarity and sequenced using the NextSeq 500/550 High Output Kit v2 (75 cycles, Illumina). After demultiplexing, RNA-seq data were aligned to the Rattus Norvegicus reference genome (.ensembl.org/pub/release-98/fasta/rattus_norvegicus/dna/) using the Subread package v2.0.1 alignment function39. The BAM files for sequencing data alignment were counted using featureCounts function of Subread tool^40 using the macOS Catalina. The raw count data were subjected to differential gene expression analysis using DESeq2 package for R^41 with the vehicle group as reference. The adjusted p-values were named as the false discover rate (FDR).

injured rat cornea = test: Rat cornea alkali burn: corneal RNA-seq, cytokine storm, NFkB/inflammation, senescence, integrin and protease genes; format: in vivo; details: rat cornea, RNA-seq 14 days after injury
Description: as §1, §2

ACE2 [4] = test: HCEC challenged with IFNγ: Ace2 gene expression; format: cell-based, human; details: IFNγ 100 ng/ml
Source text: (§3) All experiments with human corneal epithelial cells were approved by the Institutional Review Board of LSUHNO and conducted in accordance with NIH guidelines. HCEC were kept frozen in the laboratory at passage 2544. Cells were maintained in keratinocyte growth (KGM) medium containing the keratinocyte basal medium (KBM) (Lonza: CC-3101) supplemented with bovine pituitary extract (BPE), hEGF, Insulin, Hydrocortisone and Gentamicin Sulfate-Amphotericin (GA-1000) (Lonza, Cat. CC-4131). For all experiments, cells were seeded at 30,000 cells/cm2.
(§4) For screening the stimulation of receptor ACE2 by cytokines, the HCEC were cultured with KGM until 50-60% confluence. Then, changed to KBM containing IL-1β, -2, -6 and 8, IFN-α, -ε, and -γ or TNFα at 1, 10 or 100 ng/ml. The cells were harvested after 6 hours and analyze for the gene expression of Ace2. In other experiments, HCEC were stimulated with IFNγ, and thereafter, lipid mediators were added. For the Alexa 594-conjugated RBD binding, IFNγ was used as a cytokine trigger. At 12 hours after cytokine exposure and lipid mediator treatments, […] of labeled RBD was added to the medium. The evaluation of RBD binding was conducted 24 hours after.
Quantitative PCR was performed with the Biomark HD system (Fluidigm, San Francisco, CA, USA). […]

Cdkn2a (p16INK4a) = test: HCEC challenged with IFNγ: Cdkn2a gene expression; format: cell-based, human; details: IFNγ 100 ng/ml
Source text: as §3, §4
Quantitative PCR was performed with the Biomark HD system (Fluidigm, San Francisco, CA, USA). Briefly, 200 ng of RNA was reverse-transcribed using iScript Reverse Transcription Supermix (Bio-Rad), and the cDNA was pre-amplified using the PreAmp Master Mix (PN 100-5580; Fluidigm). The cDNA was then subjected to Exonuclease I treatment and diluted 5 times in TE Buffer. The qPCR reaction mixture and primer reaction mixture were made and loaded into the Biomark 96.96 IFC™ (Integrated Fluidic Circuit). The enzyme reaction was mixed using Juno™ Controller (Fluidigm) and run using the cycling program of (i) 70° C. for 40 minutes followed by 60° C. for 30 seconds, (ii) hot start for 1 minute at 95° C., (iii) 30 cycles of denaturation at 96° C. for 5 seconds, and annealing at 60° C. for 20 seconds, and (iv) melting curves between 60° C. and 95° C. with 1° C. increments/3 seconds. The Ct value of target genes was normalized to the house-keeping genes Gapdh, Hprt1, and Tfrc before normalized to the vehicle group. Relative fold changes from the ΔΔCT calculation was used to make the graph.

Alexa 594-RBD [5] = test: HCEC challenged with IFNγ: Alexa 594-RBD binding (unbiased imaging, Imaris); format: cell-based, human; details: IFNγ 100 ng/ml and lipid mediators 200 nM for 12 h, images 24 h after RBD
Description: as §4
Twenty-four hours after Alexa 594-RBD was added to the HCEC, the cells were washed with PBS (3×/5 min) and fixed with 4% paraformaldehyde for 30 minutes at RT. The HCEC were washed 2× with PBS and stained with Hoechst 33342 Solution (ThermoFisher Scientific, Cat. 62249) for 30 minutes at RT. Next, the HCEC were washed 2× with PBS before imaging. For unbiased data collection, 7 designated areas were defined in each well (FIG. 63) and captured with an Olympus FV3000 confocal laser scanning microscopy under “Multi Area Time Lapse” (MATL) mode. All images were acquired with the same parameters and Z-section range, converted and inputted in the Imaris software version 9.5.1. The threshold for the control images was defined by the HCEC without Alexa 594-conjugated RBD of S protein and using it as a threshold filter for the Imaris batch image processing function. The sum of total intensity for each image was used to evaluate the binding efficiency.

[6] = tested on: human corneal epithelial cells (HCEC); test: HCEC challenged with IFNγ: SASP secretome (β-Gal staining); format: cell-based; details: HCEC 24 h after IFN-γ challenge
[7] = tested on: receptor-binding domain (RBD) of the SARS-CoV-2 spike; format: cell-based, human
ACE-2 receptor = test: ACE-2 protein abundance by Jess capillary western in human alveoli in culture; format: cell-based; details: effect dependent on addition of IL-1b
Source text: The Simple Protein platform Jess allows running a protein mixture in a capillary system that also serves as a probing matrix for the antibodies. This platform obviates the need to transfer the size-separated proteins onto a membrane with the consequent loss of sample. The sample amount that can be run in Jess is several times smaller than that required for Western blots. Therefore, high throughput is facilitated in cell cultures. The antibodies to this protein have been validated in our laboratory.
c.1.b. Protein abundance using Jess technology. The Simple Protein platform Jess allows running a protein mixture in a capillary electrophoretic system as a probing matrix for the antibodies (we refer to western blot as “Jess WB” here). This platform obviates the need to transfer the size-separated proteins onto a membrane with a potential loss of sample. The sample size run in Jess is several times smaller than that for classical WB. (400 ng protein/capillary column vs. 10 or more μg for classical WB). The proteins we assess will include ACE2, Furin, ADAM17, DPP4, TMPRSS2, protein surfactant D, and Cathepsin L. In addition, senescence and SASP proteins will also be analyzed. […]
ACE2 Protein abundance using Jess technology. […] Soluble protein concentration was determined by BCA assay (Thermo Fisher Scientific, Cat. 23225) and 0.4 μg used/reaction. […]

SMILES | ACE2 abundance (protein, normalized to GAPDH) (ACE2 [1]) | binding of Alexa 594-RBD to injured cornea (Alexa 594-RBD [2]) | Ace2 gene expression levels (ACE2 [3]) | 51 injury-upregulated genes (cytokines, SASP, NFkB inflammatory) (injured rat cornea) | Il6 and Vegfa expression (injured rat cornea) | integrin gene expression (Itga5 and Itgb 1) (injured rat cornea) | transcriptomic profile in PCA plot relative to control cornea (injured rat cornea) | IFNγ-triggered Ace2 activation (ACE2 [4]) | Cdkn2a activation (Cdkn2a (p16INK4a)) | IFNγ-stimulated Alexa 594-RBD binding (Alexa 594-RBD [5]) | senescence programming genes and SASP secretome activation (β-Gal) [6] | RBD protein internalization (RBD located below the membrane line) [7] | expression of the ACE-2 receptor (protein abundance, Jess) (ACE-2 receptor)
CC/C=C\C[C@@H](O)/C=C/C=C\C/C=C\C/C=C\C=C\[C@H](O)CCC(=O)O [RvD6i] | decrease | decrease; also recorded: counteracted | decrease | most are inhibited | reduced | significantly decreased; also recorded: decrease | nearest to the normal cornea | markedly attenuated; also recorded: suppressed | decrease | attenuated | blocked; also recorded: suppressed |  | 
CC/C=C\CC(O)\C=C/C=C/C=C/C(O)C/C=C\C/C=C\CCCCCCCCCCCCCCC(=O)O [ELV-N34, (16Z,19Z,22R,23E,25E,27Z,29S,31Z)-22,29-dihydroxytetra-triaconta-16,19,23,25,27,31-hexaenoic acid] |  |  |  |  |  |  |  |  |  |  |  | decrease | downregulate
